According to ChEMBL document CHEMBL2424589, “Novel hydroxyl tricyclics (e.g., GSK966587) as potent inhibitors of bacterial type IIA topoisomerases” (Bioorg Med Chem Lett, 2013):
≈ marks a conversion by molar mass, not a printed value. Each block holds one compound with its values, some of them ahead of it.

What was measured:
[1] = Inhibition of DNA gyrase-dependent DNA replication in toluenized-Haemophilus influenzae cells assessed as ATP-dependent [33P]-TTP incorporation after 30 mins by scintillation proximity assay; conditions: 0.5 h
Haemophilus influenzae = experiment: Antibacterial activity against Haemophilus influenzae H128 assessed as growth inhibition after 18 to 24 hrs by broth microdilution method; assay type: functional
Canis familiaris [2] = species on record: Canis familiaris; experiment: Toxicity in dog assessed as hepatic portal tract lesions measured for 14 days by GLP assay; assay type: organism-based, Canis lupus familiaris; conditions: in vivo, 336 h
Streptococcus pneumoniae [3] = experiment: Antibacterial activity against Streptococcus pneumoniae 1629 assessed as growth inhibition after 18 to 24 hrs by broth microdilution method; assay type: functional
Staphylococcus aureus = experiment: Antibacterial activity against Staphylococcus aureus WCUH-29 assessed as growth inhibition after 18 to 24 hrs by broth microdilution method; assay type: functional
[4] = molecular target: T1, Voltage-gated inwardly rectifying potassium channel KCNH2 (Homo sapiens, UniProt Q12809); experiment: Inhibition of human ERG transfected in HEK293 cells by patch clamp assay; assay type: cell-based
T1 sequence (Q12809 whole entry): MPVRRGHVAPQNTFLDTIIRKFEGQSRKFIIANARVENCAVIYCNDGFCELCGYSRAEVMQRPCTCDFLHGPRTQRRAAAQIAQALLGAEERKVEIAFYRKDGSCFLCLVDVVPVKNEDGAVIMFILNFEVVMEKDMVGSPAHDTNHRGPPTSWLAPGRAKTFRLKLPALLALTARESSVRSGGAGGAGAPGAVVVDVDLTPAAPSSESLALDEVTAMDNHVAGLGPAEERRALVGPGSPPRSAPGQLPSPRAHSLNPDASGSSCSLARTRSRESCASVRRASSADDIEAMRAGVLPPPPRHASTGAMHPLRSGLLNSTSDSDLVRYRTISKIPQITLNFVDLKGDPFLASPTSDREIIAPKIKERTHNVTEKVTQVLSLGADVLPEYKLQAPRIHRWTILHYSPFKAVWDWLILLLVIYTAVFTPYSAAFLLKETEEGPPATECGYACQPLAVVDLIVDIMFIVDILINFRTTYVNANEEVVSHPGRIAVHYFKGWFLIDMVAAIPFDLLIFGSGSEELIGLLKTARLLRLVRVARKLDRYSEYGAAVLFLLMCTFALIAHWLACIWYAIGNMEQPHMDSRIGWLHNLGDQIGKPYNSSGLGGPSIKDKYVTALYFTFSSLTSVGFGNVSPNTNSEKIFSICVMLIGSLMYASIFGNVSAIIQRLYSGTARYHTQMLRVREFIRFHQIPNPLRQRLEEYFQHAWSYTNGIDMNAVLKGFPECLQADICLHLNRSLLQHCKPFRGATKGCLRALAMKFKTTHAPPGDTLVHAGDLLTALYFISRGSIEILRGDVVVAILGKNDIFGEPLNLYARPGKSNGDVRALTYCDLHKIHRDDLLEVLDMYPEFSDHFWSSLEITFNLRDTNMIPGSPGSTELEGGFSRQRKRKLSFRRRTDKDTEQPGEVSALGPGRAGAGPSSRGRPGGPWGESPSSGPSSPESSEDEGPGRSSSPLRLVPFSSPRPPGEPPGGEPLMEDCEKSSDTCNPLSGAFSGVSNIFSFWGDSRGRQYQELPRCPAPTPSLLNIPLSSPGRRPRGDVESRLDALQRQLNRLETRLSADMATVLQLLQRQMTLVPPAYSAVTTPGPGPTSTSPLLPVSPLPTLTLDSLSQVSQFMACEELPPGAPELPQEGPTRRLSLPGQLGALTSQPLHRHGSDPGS

[5] = molecular target: T1, Voltage-gated inwardly rectifying potassium channel KCNH2; experiment: Inhibition of human ERG by patch clamp assay
[6] = Clearance in Beagle dog at 3 mg/kg, iv; assay type: ADME, organism-based, Canis lupus familiaris; parameters: dose 3 mg/kg, route intravenous; conditions: in vivo
[7] = Cmax in nonneutropenic mouse infected with Streptococcus pneumoniae 1629 at 50 mg/kg, po bid; assay type: ADME, organism-based; parameters: dose 50 mg/kg, route oral; conditions: in vivo
Streptococcus pneumoniae [8] = experiment: Antibacterial activity against Streptococcus pneumoniae 1629 infected in nonneutropenic mouse assessed as reduction in bacterial burden in lungs at 50 mg/kg, po bid after 48 hrs relative to 1 hr nontreated control; assay type: functional, Lung
Canis familiaris [9] = species on record: Canis familiaris; experiment: Renal clerance in Beagle dog relative to total clearance; assay type: ADME, organism-based, Canis lupus familiaris, Kidney; conditions: in vivo
[10] = Half life in Sprague-Dawley rat at 3 mg/kg, iv; assay type: ADME, organism-based; parameters: dose 3 mg/kg, route intravenous; conditions: in vivo
[11] = Half life in Beagle dog at 3 mg/kg, iv; assay type: ADME, organism-based, Canis lupus familiaris; parameters: dose 3 mg/kg, route intravenous; conditions: in vivo
Rattus norvegicus = species on record: Rattus norvegicus; experiment: Blood clerance in Sprague-Dawley rat relative to hepatic blood flow; assay type: ADME, organism-based; conditions: in vivo
[12] = Half life in cynomolgus monkey at 3 mg/kg, iv; assay type: ADME, organism-based, Macaca fascicularis; parameters: dose 3 mg/kg, route intravenous; conditions: in vivo
[13] = AUC in Beagle dog at 5 mg/kg, po; assay type: ADME, organism-based, Canis lupus familiaris; parameters: dose 5 mg/kg, route oral; conditions: plasma
Streptococcus pneumoniae [14] = experiment: Antibacterial activity against Streptococcus pneumoniae 1629 infected in nonneutropenic mouse assessed as reduction in bacterial burden in lungs at 100 mg/kg, po bid after 48 hrs; assay type: functional, Lung
Liver = experiment: Intrinsic clearance in dog liver microsomes; assay type: ADME, Canis lupus familiaris, Microsome
Canis familiaris [15] = species on record: Canis familiaris; experiment: Blood clerance in Beagle dog relative to hepatic blood flow; assay type: ADME, organism-based, Canis lupus familiaris; conditions: in vivo
[16] = AUC in Sprague-Dawley rat at 5 mg/kg, po; assay type: ADME, organism-based; parameters: dose 5 mg/kg, route oral; conditions: plasma
[17] = Intrinsic clearance in monkey liver microsomes; assay type: ADME, Macaca mulatta, Microsome; conditions: rhesus monkey
[18] = Oral bioavailability in Sprague-Dawley rat at 5 mg/kg; assay type: ADME, organism-based; conditions: in vivo
[19] = AUC in nonneutropenic mouse infected with Streptococcus pneumoniae 1629 at 50 mg/kg, po bid measured per day; assay type: ADME, organism-based; parameters: dose 50 mg/kg, route oral; conditions: plasma
[20] = Clearance in Sprague-Dawley rat at 3 mg/kg, iv; assay type: ADME, organism-based; parameters: dose 3 mg/kg, route intravenous; conditions: in vivo
[21] = Oral bioavailability in cynomolgus monkey at 5 mg/kg; assay type: ADME, organism-based, Macaca fascicularis; conditions: in vivo
[22] = Volume of distribution at steady state in Beagle dog at 3 mg/kg, iv; assay type: ADME, organism-based, Canis lupus familiaris; parameters: dose 3 mg/kg, route intravenous; conditions: in vivo, read-out: Vdss
[23] = Volume of distribution at steady state in cynomolgus monkey at 3 mg/kg, iv; assay type: ADME, organism-based, Macaca fascicularis; parameters: dose 3 mg/kg, route intravenous; conditions: in vivo, read-out: Vdss
Cynomolgus monkey [24] = experiment: Renal clerance in cynomolgus monkey relative to total clearance; assay type: ADME, organism-based, Macaca fascicularis, Kidney; conditions: in vivo
[25] = AUC in cynomolgus monkey at 5 mg/kg, po; assay type: ADME, organism-based, Macaca fascicularis; parameters: dose 5 mg/kg, route oral; conditions: plasma
[26] = Volume of distribution at steady state in Sprague-Dawley rat at 3 mg/kg, iv; assay type: ADME, organism-based; parameters: dose 3 mg/kg, route intravenous; conditions: in vivo, read-out: Vdss
[27] = Plasma protein binding in dog; assay type: ADME, cell-free, Canis lupus familiaris; conditions: read-out: PPB (converted)
[28] = Plasma protein binding in human; assay type: ADME, cell-free; conditions: read-out: PPB (converted)
Cynomolgus monkey [29] = experiment: Blood clerance in cynomolgus monkey relative to hepatic blood flow; assay type: ADME, organism-based, Macaca fascicularis; conditions: in vivo
Liver microsomes = experiment: Intrinsic clearance in human liver microsomes; assay type: ADME, Microsome
[30] = Clearance in cynomolgus monkey at 3 mg/kg, iv; assay type: ADME, organism-based, Macaca fascicularis; parameters: dose 3 mg/kg, route intravenous; conditions: in vivo
[31] = Oral bioavailability in Beagle dog at 5 mg/kg; assay type: ADME, organism-based, Canis lupus familiaris; conditions: in vivo
[32] = Plasma protein binding in rat; assay type: ADME, cell-free; conditions: read-out: PPB (converted)
[33] = Plasma protein binding in monkey; assay type: ADME, cell-free, Macaca mulatta; conditions: rhesus monkey, read-out: PPB (converted)

Compound: O=c1ccc2ncc(F)c3c2n1C[C@]3(O)CN1CCC(NCc2cc3c(cn2)OCCO3)CC1
IC50 [1]: > 1.32 µg/mL
MIC (Haemophilus influenzae): > 16 µg/mL
Activity (Canis familiaris [2]): Non-toxic
MIC (Streptococcus pneumoniae [3]): 4 µg/mL (≈ 8.56 µM)
MIC (Staphylococcus aureus): 8 µg/mL (≈ 17.1 µM)

Compound: O=c1ccc2ncc(F)c3c2n1C[C@H]3CN1CCC(NCc2cc3c(cn2)OCCO3)CC1
IC50 [1]: 0.035 µg/mL (≈ 0.0775 µM)
MIC (Haemophilus influenzae): 0.25 µg/mL (≈ 0.554 µM)
Activity (Canis familiaris [2]): Non-toxic
IC50 [4]: 122 µM
IC50 [5]: 58 µM
MIC (Streptococcus pneumoniae [3]): 0.06 µg/mL (≈ 0.133 µM)
MIC (Staphylococcus aureus): 0.03 µg/mL (≈ 0.0664 µM)

Compound: O=c1c(F)cc2ncc(F)c3c2n1C[C@@]3(O)CN1CCC(NCc2cc3c(cn2)OCCO3)CC1
IC50 [1]: 0.037 µg/mL (≈ 0.0762 µM)
MIC (Haemophilus influenzae): 0.5 µg/mL (≈ 1.03 µM)
Activity (Canis familiaris [2]): Non-toxic
IC50 [5]: 289 µM
MIC (Streptococcus pneumoniae [3]): 0.25 µg/mL (≈ 0.515 µM)
MIC (Staphylococcus aureus): 0.25 µg/mL (≈ 0.515 µM)

Compound: O=c1ccc2ncc(F)c3c2n1C[C@@]3(O)CN1CCC[C@@H](CNCc2cc3c(cn2)OCCO3)C1
IC50 [1]: 1.21 µg/mL (≈ 2.52 µM)
MIC (Haemophilus influenzae): 16 µg/mL (≈ 33.2 µM)
Activity (Canis familiaris [2]): Non-toxic
MIC (Streptococcus pneumoniae [3]): 4 µg/mL (≈ 8.31 µM)
MIC (Staphylococcus aureus): 4 µg/mL (≈ 8.31 µM)

Compound: O=c1ccc2ncc(F)c3c2n1C[C@@]3(O)CN1CCO[C@@H](CNCc2cc3c(cn2)OCCO3)C1
IC50 [1]: 0.361 µg/mL (≈ 0.747 µM)
MIC (Haemophilus influenzae): 4 µg/mL (≈ 8.27 µM)
Activity (Canis familiaris [2]): Non-toxic
MIC (Streptococcus pneumoniae [3]): 4 µg/mL (≈ 8.27 µM)
MIC (Staphylococcus aureus): > 16 µg/mL

Compound: O=c1ccc2ncc(F)c3c2n1C[C@@]3(O)CN1CCC(NCc2cc3c(cn2)OCCO3)CC1
clearance [6]: 18.1 mL/min/kg
Cmax [7]: 8000 ng/mL
IC50 [1]: 0.035 µg/mL (≈ 0.0749 µM)
log10cfu (Streptococcus pneumoniae [8]): 2
MIC (Haemophilus influenzae): 1 µg/mL (≈ 2.14 µM)
CL (Canis familiaris [9]): 27%
half-life [10]: 3.1 h
Activity (Canis familiaris [2]): Toxic
half-life [11]: 7.1 h
CL (Rattus norvegicus): 100%
half-life [12]: 2.3 h
AUC [13]: 2820 ng·h/mL
log10cfu (Streptococcus pneumoniae [14]): 1.7
CLH (Liver): < 0.5 mL/min/g
CL (Canis familiaris [15]): 50%
IC50 [4]: 310 µM
AUC [16]: 460 ng·h/mL
IC50 [5]: 239 µM
CLH [17]: 1.6 mL/min/g
bioavailability [18]: 34%
MIC (Streptococcus pneumoniae [3]): 0.125 µg/mL (≈ 0.267 µM)
MIC (Staphylococcus aureus): 0.125 µg/mL (≈ 0.267 µM)
AUC [19]: 50000 ng·h/mL
clearance [20]: 62.2 mL/min/kg
bioavailability [21]: 55%
Vd [22]: 6.4 L/kg
Vd [23]: 3.4 L/kg
CL (Cynomolgus monkey [24]): 15%
AUC [25]: 1920 ng·h/mL
Vd [26]: 8.6 L/kg
fraction unbound [27]: 0.823
fraction unbound [28]: 0.777
CL (Cynomolgus monkey [29]): 50%
CLH (Liver microsomes): < 0.5 mL/min/g
clearance [30]: 25.1 mL/min/kg
bioavailability [31]: 63%
fraction unbound [32]: 0.577
fraction unbound [33]: 0.781

Second part, led by results:

IC50 [1]: 0.058 µg/mL (≈ 0.124 µM)
MIC (Haemophilus influenzae): 0.5 µg/mL (≈ 1.07 µM)
MIC (Streptococcus pneumoniae [3]): 0.125 µg/mL (≈ 0.267 µM)
MIC (Staphylococcus aureus): 0.125 µg/mL (≈ 0.267 µM)
Compound: O=c1cnc2ccc(F)c3c2n1C[C@@]3(O)CN1CCC(NCc2cc3c(cn2)OCCO3)CC1
Activity (Canis familiaris [2]): Non-toxic
IC50 [4]: 206 µM
IC50 [5]: 101 µM

IC50 [1]: 0.04 µg/mL (≈ 0.0852 µM)
MIC (Haemophilus influenzae): 0.5 µg/mL (≈ 1.06 µM)
MIC (Streptococcus pneumoniae [3]): 0.06 µg/mL (≈ 0.128 µM)
MIC (Staphylococcus aureus): 0.03 µg/mL (≈ 0.0639 µM)
Compound: O=c1ccc2ncc(F)c3c2n1C[C@@]3(F)CN1CCC(NCc2cc3c(cn2)OCCO3)CC1
Activity (Canis familiaris [2]): Non-toxic

IC50 [1]: 0.071 µg/mL (≈ 0.152 µM)
MIC (Haemophilus influenzae): 1 µg/mL (≈ 2.14 µM)
MIC (Streptococcus pneumoniae [3]): 0.125 µg/mL (≈ 0.268 µM)
MIC (Staphylococcus aureus): 0.06 µg/mL (≈ 0.129 µM)
Compound: O=c1ccc2ccc(F)c3c2n1C[C@@]3(O)CN1CCC(NCc2cc3c(cn2)OCCO3)CC1
Activity (Canis familiaris [2]): Non-toxic
